Measured values as given in patent US20060246104A1, “Stable rgd peptidomimetic composition” (priority 2003, published 2006).

Assays:
3T3 fibroblasts = assay: Cell adhesion assay (cell area coverage on surface-immobilized substrates); type: cell-based; conditions: substance surface-immobilized on tissue culture plastic; 3T3 cells, 24 hrs; relative to untreated tissue culture plastic
Excerpt: For this study, we immobilized AAGPAHA and the peptide GRGDSP on dextran-coated tissue culture plastic dishes in a series of steps shown in FIGS. 2-4. Multi-well cell culture dishes were first surface-aminated by adsorbing poly-lysine (FIG. 2). Dextran was then immobilized on these surfaces (FIG. 3) using reported methods (Massia, Biomaterials 21:2753-61, 2000). AAGPAHA and GRGDSP were then surface-immobilized on dextran-coated tissue culture plastic (FIG. 4) using reported methods (Massia, J Biomed Mater Res 56:390-99, 2001). Dextran substrates were activated by oxidation of the glucose subunits (Glc) with sodium metaperiodate to convert Glc subunits to […]. […]
Cell area coverage assays were performed to assess the extent of 3T3 cell adhesion and spreading on all substrates. […] Following incubation, samples were fixed (3.8% formaldehyde in phosphate buffered saline (PBS) for 5 min. and stained with 0.1% aqueous toluidine blue (5 min). Stained cells were then examined using phase contrast or stereomicroscopy (Leica) at 100× magnification. Three random 100× fields were selected for each substrate for analysis. The extent of cell adhesion was determined for each captured digital image by calculating a percentage of cell area coverage using digital image analysis software. Final data were presented as a percentage of control adhesion. […]

[1] = tested on: 3T3 cell adhesion and spreading (integrin-mediated); assay: Cell adhesion inhibition assay (soluble competitor against grafted substrate); type: cell-based; conditions: soluble GRGDSP 1 mg/mL, 3T3 cells, 24 hrs
Method: The cell line utilized in these studies were 3T3 fibroblasts (ATCC # CRL-6476, Manassas, Va.). 3T3 cells were maintained in Dulbecco's modified Eagle medium (DMEM) with 10% fetal bovine serum (FBS) at 37° C. in saturated humidity. All cell culture media and reagents were obtained from Life Technologies, Inc. (Rockville, Md.).
Cell area coverage assays were performed to assess the extent of 3T3 cell adhesion and spreading on all substrates. 3T3 cells were seeded on 24-well culture dishes (15,000 cells/well) and incubated for 24 hrs. Following incubation, samples were fixed (3.8% formaldehyde in phosphate buffered saline (PBS) for 5 min. and stained with 0.1% aqueous toluidine blue (5 min). Stained cells were then examined using phase contrast or stereomicroscopy (Leica) at 100× magnification. Three random 100× fields were selected for each substrate for analysis. The extent of cell adhesion was determined for each captured digital image by calculating a percentage of cell area coverage using digital image analysis software. Final data were presented as a percentage of control adhesion.
The percentage of control adhesion was calculated by multiplying the ratio of % area coverage on dextran-coated, peptide-grafted, or peptidomimetic-grafted substrates to % cell area coverage on untreated tissue culture plastic by 100. […]

trypsin = assay: Enzymatic stability in trypsin solution, MALDI-TOF mass spectrometry; type: in vitro ADME; conditions: for decrease in mass peak size after treatment with trypsin / mass peak intensity after trypsin exposure / degradation after prolonged trypsin exposure / mass peak intensity after prolonged trypsin exposure: 0.05 mM trypsin; for decrease in mass peak size after treatment with trypsin / mass peak intensity after trypsin exposure / mass peak intensity before trypsin exposure: 1 hr, 37° C.; for mass peak intensity after trypsin exposure / mass peak intensity before trypsin exposure: HEPES pH 8, 0.4 mM; for degradation after prolonged trypsin exposure / mass peak intensity after prolonged trypsin exposure / mass peak intensity before prolonged trypsin exposure: 16 hrs, room temperature; for mass peak intensity before trypsin exposure / mass peak intensity before prolonged trypsin exposure: control without trypsin
Method: GRGDSP and AAGPAHA were mixed with trypsin solution in HEPES buffer (10 mM, pH=8) to a final solution of 0.4 mM peptide and 0.05 mM (0.12%) trypsin and incubated at 37° C. for 1 hr. In a control experiment, both peptides were dissolved in the same buffer without trypsin at the same final concentrations and incubated at 37° C. for 1 hr. Similarly, in another set of experiments, the same samples were incubated at room temperature overnight. At the end of the incubation period, trypsin activity was quenched by adding inhibitor; and the samples were analyzed by MALDI-TOF mass spectrometry to assess the extent of degradation.

Compound	percentage of control adhesion (cell area coverage) (3T3 fibroblasts) [% control]	percentage of control adhesion on surface-immobilized AAGPAHA in presence of soluble compound [1]	percentage of control adhesion on surface-immobilized AAGPAHA in presence of soluble compound ([1]; listed as RGD peptide)	decrease in mass peak size after treatment with trypsin (trypsin)	mass peak intensity after trypsin exposure (trypsin)	degradation after prolonged trypsin exposure (trypsin)	mass peak intensity after prolonged trypsin exposure (trypsin)	mass peak intensity before trypsin exposure (trypsin)	mass peak intensity before prolonged trypsin exposure (trypsin)
GRGDSP	124.3±4.1	5.7%±6.9%	decreased cell coverage	73%	4.0×10^3	about 98%	3.0×10^2	1.5×10^4	1.5×10^4
N=C(N)NCCCC(N)C(=O)NCCCCC(N)C(=O)O (stereo not shown) [AAGPAHA, 2-amino-6-[(2-amino-5{guanidino}pentanoyl)amino]hexanoic acid]	105.9±12.8	–	–	no significant change	the same	highly resistant to trypsin-mediated degradation	the same	1.2×10^4	1.2×10^4
